Values of other authors as cited in patent publication US6525095B1, “Propionate feed supplement” (New Mexico State University Technology Transfer Corporation, priority 2000, dated 2003).

Test system: swine
Details: for Average daily gain / Average feed intake per day / Total insulin: 200 ppb chromium in feed

Row | Compound | Average daily gain | Average feed intake per day | Total insulin | Glucose clearance (during the insulin challenge) | Glucose half-life (during the insulin challenge)
1 | CCC(=O)[O-].CCC(=O)[O-].CCC(=O)[O-].[Cr+3] [chromium (III) propionate] | decrease | decrease | remained unaffected | increased slightly more | decreased
2 | chromium (III) tripicolinate | decrease | decrease | remained unaffected |  | decreased
